In PubChem BioAssay AID1636 (PCMD, 2009):

Target: Procathepsin L (Homo sapiens) (UniProt P07711)
Assay: CTSL enzyme inhibitors – biochemical, probe 2, dose response (AID 1636)
Details: purified human cathepsin L enzyme inhibition

Sequence of Procathepsin L (Homo sapiens) (P07711 114-288 limits assumed): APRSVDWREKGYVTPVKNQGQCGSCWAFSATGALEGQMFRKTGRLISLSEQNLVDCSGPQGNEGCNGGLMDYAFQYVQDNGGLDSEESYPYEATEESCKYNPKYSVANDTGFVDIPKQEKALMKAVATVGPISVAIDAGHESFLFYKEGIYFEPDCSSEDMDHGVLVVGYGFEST
Sequence of Procathepsin L (Homo sapiens) (P07711 292-333 limits assumed): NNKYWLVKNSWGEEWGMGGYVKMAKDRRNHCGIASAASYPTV

## CC(C)(C)OC(=O)N[C@@H](Cc1c[nH]c2ccccc12)C(=O)NNC(=O)OCC(=O)N1CCCc2ccccc21
  IC50: 7 nM
